This passage reports Ki results from patent publication US20110021565A1, “PIPERIDINE DERIVATIVES AS NK3 ANTAGONISTS” (priority 2007, published 2011).

Where a name gives a salt, the structure may show the parent alone. Read-outs that look alike come from different tables or passages of the source.

For the test, the target named is T1, recombinant human NK3 receptor (Homo sapiens, UniProt P29371).
T1 construct: expressed in transfected cells; host or cells: HEK293 cells, transient expression; membrane preparation
T1 sequence (P29371 1-465): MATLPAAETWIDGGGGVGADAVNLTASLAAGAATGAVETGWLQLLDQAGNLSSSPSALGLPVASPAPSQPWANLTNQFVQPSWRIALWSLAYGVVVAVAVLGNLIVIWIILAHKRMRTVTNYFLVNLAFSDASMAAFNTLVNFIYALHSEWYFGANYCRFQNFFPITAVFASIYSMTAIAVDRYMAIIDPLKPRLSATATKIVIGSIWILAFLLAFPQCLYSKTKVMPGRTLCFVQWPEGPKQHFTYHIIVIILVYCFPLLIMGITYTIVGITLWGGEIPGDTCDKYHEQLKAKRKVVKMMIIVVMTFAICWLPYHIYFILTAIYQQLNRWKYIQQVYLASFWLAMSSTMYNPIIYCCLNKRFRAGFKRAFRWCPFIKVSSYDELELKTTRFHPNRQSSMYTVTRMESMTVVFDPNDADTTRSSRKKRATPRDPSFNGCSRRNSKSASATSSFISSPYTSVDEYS
The test is described as follows: [3H]SR142801 competition binding assay. Here is the method: [^3H]SR142801 Competition Binding Assay
hNK3 receptor binding experiment were performed using [^3H]SR142801 (Catalog No. TRK1035, specific activity: 74.0 Ci/mmol, Amersham, GE Healthcare UK limited, Buckinghamshire, UK) and membrane isolated from HEK293 cells transiently expressing recombinant human NK3 receptor. After thawing, the membrane homogenates were centrifuged at 48,000×g for 10 min at 4° C., the pellets were resuspended in the 50 mM Tris-HCl, 4 mM MnCl2, 1 μM phosphoramidon, 0.1% BSA binding buffer at pH 7.4 to a final assay concentration of 5 μg protein/well. For inhibition experiments, membranes were incubated with [^3H]SR142801 at a concentration equal to KD value of radioligand and 10 concentrations of the inhibitory compound (0.0003-10 μM) (in a total reaction volume of 500 μl) for 75 min at room temperature (RT). At the end of the incubation, membranes were filtered onto unitfilter (96-well white microplate with bonded GF/C filter preincubated 1 h in 0.3% PEI+0.3% BSA, Packard BioScience, Meriden, Conn.) with a Filtermate 196 harvester (Packard BioScience) and washed 4 times with ice-cold 50 mM Tris-HCl, pH 7.4 buffer. Nonspecific binding was measured in the presence of 10 μM SB222200 for both radioligands. The radioactivity on the filter was counted (5 min) on a Packard Top-count microplate scintillation counter with quenching correction after addition of 45 μl of microscint 40 (Canberra Packard S. A., Zurich, Switzerland) and shaking for 1 h. Inhibition curves were fitted according to the Hill equation: y=100/(1+(x/IC50)^nH), where nH=slope factor using Excel-fit 4 software ([…]). IC50 values were derived from the inhibition curve and the affinity constant (IQ values were calculated using the Cheng-Prussoff equation Ki=IC50/(1+[L]/KD) where [L] is the concentration of radioligand and KD is its dissociation constant at the receptor, derived from the saturation isotherm. All experiments were performed in duplicate and the mean±standard error (SEM) of the individual Ki values was calculated.

[1] abbreviates: [3H]SR142801, membranes of HEK293 cells transiently expressing recombinant human NK3 receptor, read-out: hNK3 Ki.
Setting [2] is: representative compounds, [3H]SR142801, HEK293 membranes, human NK3 receptor, read-out: Ki NK3 h.

Turning to `CN(Cc1ccc(F)c(C(F)(F)F)c1)C(=O)C(C)(CCN1CCC(N2CCCC2=O)CC1)c1ccc(Cl)c(Cl)c1` (single isomer, unassigned) [Example 118, (S or R)-2-(3,4-Dichloro-phenyl)-N-(4-fluoro-3-trifluoromethyl-benzyl)-2,N-dimethyl-4-[4-(2-oxo-pyrrolidin-1-yl)-piperidin-1-yl]-butyramide; hydrochloride], the inhibition constant Ki under setting [1] was found to be 171 nM.

Take `CN(Cc1ccc(F)c(C(F)(F)F)c1)C(=O)C(C)(CCN1CCC(N2CCCC2=O)CC1)c1ccc(Cl)c(Cl)c1` (single isomer, unassigned) [Example 119, (R or S)-2-(3,4-Dichloro-phenyl)-N-(4-fluoro-3-trifluoromethyl-benzyl)-2,N-dimethyl-4-[4-(2-oxo-pyrrolidin-1-yl)-piperidin-1-yl]-butyramide; hydrochloride]: the inhibition constant Ki was found to be 0.8 nM under setting [1] and 0.8 nM under setting [2].

Take `C[C@](CCN1CCC(N2CCCC2=O)CC1)(C(=O)N[C@H](CO)c1ccc(Cl)c(Cl)c1)c1ccc(Cl)c(Cl)c1` (single isomer, unassigned) [Example 120, (R or S)-2-(3,4-Dichloro-phenyl)-N-[(S or R)-1-(3,4-dichloro-phenyl)-2-hydroxy-ethyl]-2-methyl-4-[4-(2-oxo-pyrrolidin-1-yl)-piperidin-1-yl]-butyramide]: the inhibition constant Ki is, setting by setting: under setting [1], 2 nM; under setting [2], 2 nM.

In the case of `CC(=O)N(C)C1CCN(CCC(C)(C(=O)N(C)Cc2ccc(F)c(C(F)(F)F)c2)c2ccc(Cl)c(Cl)c2)CC1` (single isomer, unassigned) [Example 121, (S or R)-4-[4-(Acetyl-methyl-amino)-piperidin-1-yl]-2-(3,4-dichloro-phenyl)-N-(4-fluoro-3-trifluoromethyl-benzyl)-2,N-dimethyl-butyramide], the Ki under setting [1] was 173 nM.

As for `CC(=O)N(C)C1CCN(CCC(C)(C(=O)N(C)Cc2ccc(F)c(C(F)(F)F)c2)c2ccc(Cl)c(Cl)c2)CC1` (single isomer, unassigned) [Example 122, (R or S)-4-[4-(Acetyl-methyl-amino)-piperidin-1-yl]-2-(3,4-dichloro-phenyl)-N-(4-fluoro-3-trifluoromethyl-benzyl)-2,N-dimethyl-butyramide], the Ki is 1.5 nM under setting [1] and 1.5 nM under setting [2].

For `CN(Cc1ccc(C(F)(F)F)c(F)c1)C(=O)C(C)(CCN1CCC(NS(C)(=O)=O)CC1)c1ccc(Cl)c(Cl)c1` (single isomer, unassigned) [Example 123, (S or R)-2-(3,4-Dichloro-phenyl)-N-(3-fluoro-4-trifluoromethyl-benzyl)-4-(4-methanesulfonylamino-piperidin-1-yl)-2,N-dimethyl-butyramide], the Ki under setting [1] was 800 nM.

Take `CN(Cc1ccc(C(F)(F)F)c(F)c1)C(=O)C(C)(CCN1CCC(NS(C)(=O)=O)CC1)c1ccc(Cl)c(Cl)c1` (single isomer, unassigned) [Example 124, (R or S)-2-(3,4-Dichloro-phenyl)-N-(3-fluoro-4-trifluoromethyl-benzyl)-4-(4-methanesulfonylamino-piperidin-1-yl)-2,N-dimethyl-butyramide]: the Ki under setting [1] was found to be 18.8 nM.

Turning to `CC(CCN1CCC(N2CCCC2=O)CC1)(C(=O)N[C@@H](CO)c1ccc(F)cc1)c1ccc(Cl)c(Cl)c1` (single isomer, unassigned) [Example 129, 2-(3,4-Dichloro-phenyl)-N-[(R)-1-(4-fluoro-phenyl)-2-hydroxy-ethyl]-2-(R or S) methyl-4-[4-(2-oxo-pyrrolidin-1-yl)-piperidin-1-yl]-butyramide], the inhibition constant (Ki) reads like this: under setting [1], 8.2 nM; under setting [2], 8.2 nM.

As for `CC(CCN1CCC(N2CCCC2=O)CC1)(C(=O)N[C@@H](CO)c1ccc(F)cc1)c1ccc(Cl)c(Cl)c1` (single isomer, unassigned) [Example 130, 2-(3,4-Dichloro-phenyl)-N-[(R)-1-(4-fluoro-phenyl)-2-hydroxy-ethyl]-2-(S or R) methyl-4-[4-(2-oxo-pyrrolidin-1-yl)-piperidin-1-yl]-butyramide], under setting [1], the inhibition constant (Ki) turned out to be 101 nM.

Take `COCCN(C(C)=O)C1CCN(CCC(C)(C(=O)N[C@@H](CO)c2ccc(F)cc2)c2ccc(Cl)c(Cl)c2)CC1` (single isomer, unassigned) [Example 150, 4-{4-[Acetyl-(2-methoxy-ethyl)-amino]-piperidin-1-yl}-2-(3,4-dichloro-phenyl)-N-[(R)-1-(4-fluoro-phenyl)-2-hydroxy-ethyl]-2-(R or S) methyl-butyramide]: the Ki under setting [1] worked out at 1.7 nM and the inhibition constant (Ki) under setting [2] turned out to be 1.7 nM.

For `COCCN(C(C)=O)C1CCN(CCC(C)(C(=O)N[C@@H](CO)c2ccc(F)cc2)c2ccc(Cl)c(Cl)c2)CC1` (single isomer, unassigned) [Example 151, 4-{4-[Acetyl-(2-methoxy-ethyl)-amino]-piperidin-1-yl}-2-(3,4-dichloro-phenyl)-N-[(R)-1-(4-fluoro-phenyl)-2-hydroxy-ethyl]-2-(S or R) methyl-butyramide], under setting [1], the Ki is 21.1 nM.

With `CN(C1CCN(CCC(C)(C(=O)N[C@@H](CO)c2ccc(Cl)c(Cl)c2)c2ccc(Cl)c(Cl)c2)CC1)S(C)(=O)=O` (single isomer, unassigned; diastereoisomer 1) [Example 49, 2-(3,4-Dichloro-phenyl)-N-[1-(3,4-dichloro-phenyl)-2-hydroxy-ethyl]-4-[4-(methanesulfonyl-methyl-amino)-piperidin-1-yl]-2-methyl-butyramide; diastereoisomer 1], the Ki worked out at 5.5 nM under setting [1] and 5.5 nM under setting [2].

Turning to `CCN(C1CCN(CCC(C)(C(=O)N[C@@H](CO)c2ccc(Cl)c(Cl)c2)c2ccc(Cl)c(Cl)c2)CC1)S(C)(=O)=O` (single isomer, unassigned; diastereoisomer 1) [Example 79, 2-(3,4-Dichloro-phenyl)-N-[1-(3,4-dichloro-phenyl)-2-hydroxy-ethyl]-4-[4-(ethyl-methanesulfonyl-amino)-piperidin-1-yl]-2-methyl-butyramide; diastereoisomer 1], the inhibition constant Ki was found to be 1.5 nM under setting [1] and 1.5 nM under setting [2].

On to `CC(CCN1CCC(N2CCCC2=O)CC1)(C(=O)N[C@@H](CO)c1ccc(Cl)c(Cl)c1)c1ccc(Cl)c(Cl)c1` (single isomer, unassigned; diastereoisomer 1) [Example 94, 2-(3,4-Dichloro-phenyl)-N-[-1-(3,4-dichloro-phenyl)-2-hydroxy-ethyl]-2-methyl-4-[4-(2-oxo-pyrrolidin-1-yl)-piperidin-1-yl]-butyramide; diastereoisomer 1], for which the Ki was determined as 3 nM under setting [1] and 3 nM under setting [2].

Take `CC(=O)N(C)C1CCN(CCC(C)(C(=O)N[C@@H](CO)c2ccc(Cl)c(Cl)c2)c2ccc(Cl)c(Cl)c2)CC1` (single isomer, unassigned; diastereoisomer 1) [Example 109, 4-[4-(Acetyl-methyl-amino)-piperidin-1-yl]-2-(3,4-dichloro-phenyl)-N-[1-(3,4-dichloro-phenyl)-2-hydroxy-ethyl]-2-methyl-butyramide; diastereoisomer 1]: the inhibition constant Ki came to 5.6 nM under setting [1] and 5.6 nM under setting [2].

Regarding `CC(=O)N(C)C1CCN(CCC(C)(C(=O)NC(CO)c2ccc(F)cc2)c2ccc(Cl)c(Cl)c2)CC1` (single isomer, unassigned; diastereoisomer 1) [Example 138, 4-[4-(Acetyl-methyl-amino)-piperidin-1-yl]-2-(3,4-dichloro-phenyl)-N-[1-(4-fluoro-phenyl)-2-hydroxy-ethyl]-2-methyl-butyramide (diastereoisomer 1)], under setting [1], the Ki came to 29.3 nM.

Regarding `CC(=O)N(C1CC1)C1CCN(CCC(C)(C(=O)N[C@@H](CO)c2ccc(F)cc2)c2ccc(Cl)c(Cl)c2)CC1` (single isomer, unassigned; diastereoisomer 1) [Example 140, 4-[4-(Acetyl-cyclopropyl-amino)-piperidin-1-yl]-2-(3,4-dichloro-phenyl)-N-[1-(4-fluoro-phenyl)-2-hydroxy-ethyl]-2-methyl-butyramide (diastereoisomer 1)], under setting [1], the inhibition constant (Ki) is 33.3 nM.

The Ki is a dissociation constant, usually derived from enzyme kinetics or from competition with a known ligand.
